From US20100234308A1, “WAKE-UP REMEDY” (Kyowa Hakko Kogyo Co., Ltd., priority 2006, published 2010)
Peptide text beside a SMILES is read from it.

What was measured:
[1] = tested on: healthy person; experiment: Wake-up remedial effect of alanylglutamine on daily consumption (Test Examples 1 and 2); assay type: in vivo, human; settings: continuously for 1 month
From the text: Test examples in which the wake-up remedial effect of alanylglutamine was examined are indicated below.

[2] = cited from earlier work
[3] = cited from earlier work; remark: listed apart in the source

| Structure (SMILES) | awaking ([1]; 0.5 g daily before going to bed) | awaking ([1]; 1.5 g daily) | degradation in the body [2] | heat stability ([3]; compared to glutamine) | solubility in aqueous solutions ([3]; compared to glutamine) | solubility [3] |
| --- | --- | --- | --- | --- | --- | --- |
| C[C@H](N)C(=O)N[C@@H](CCC(N)=O)C(=O)O [alanylglutamine] (H-Ala-Gln-OH) | improvement in awaking | improvement in awaking | immediately degraded into alanine and glutamine | superior | superior |  |
| NC(=O)CC[C@H](N)C(=O)O [glutamine, reference compound] |  |  |  |  |  | low-solubility |
